Laboratory results: BigSolDB 2.1

NC(=O)N1c2ccccc2C=Cc2ccccc21
Conditions | solubility (mole fraction)
in chloroform, 278.15 K | 0.0577
in chloroform, 288.65 K | 0.0627
in chloroform, 297.55 K | 0.0679
in chloroform, 307.15 K | 0.0756
in chloroform, 318.95 K | 0.086
in chloroform, 327.95 K | 0.0968
in cyclohexylamine, 287.25 K | 0.0149
in cyclohexylamine, 302.35 K | 0.0193
in cyclohexylamine, 317.65 K | 0.0259
in cyclohexylamine, 332.85 K | 0.0353
in cyclohexylamine, 348.15 K | 0.05
in cyclohexylamine, 366.15 K | 0.0657
in ethyl acetate, 281.35 K | 0.00272
in ethyl acetate, 298.55 K | 0.00436
in ethyl acetate, 306.55 K | 0.00548
in ethyl acetate, 314.05 K | 0.0068
in ethyl acetate, 326.85 K | 0.00959
in ethyl acetate, 346.65 K | 0.0142
in ethylene glycol, 279.15 K | 0.00098
in ethylene glycol, 288.55 K | 0.00243
in ethylene glycol, 316.85 K | 0.00861
in ethylene glycol, 335.25 K | 0.0189
in ethylene glycol, 346.55 K | 0.0294
in ethylene glycol, 356.95 K | 0.0429
in methyl acetate, 281.95 K | 0.00521
in methyl acetate, 292.35 K | 0.00665
in methyl acetate, 301.85 K | 0.00843
in methyl acetate, 311.55 K | 0.0109
